In patent US12686832B2, “Ashless ionic liquid” (PETROLIAM NASIONAL BERHAD (PETRONAS), priority 2022, dated 2026):

Key:
[1] = Miscibility study in ETRO 4+; assay type: physicochemical; settings: 1 wt. % in ETRO 4+, mixed at 60° C. for 1 h, left 24 h before observation
Experimental: Synthesised ionic liquids (1 wt. %) were mixed with ETRO 4+ solution at 60° C. for 1 h, and left to sit for 24 h before observation.

[2] = Experimental solubility at 1 wt % in lubricant base oils; assay type: physicochemical
Experimental: ILN18-5B-DC12 was mixed in mineral base oil Group III+ (ETRO 4+) and PETRONAS LB 25 polyol ester (and their mixtures) at 1 wt. % concentration to assess solubility and tribology evaluation. Samples were prepared by mixing the solutions at 60° C. for 1 h.
Samples were prepared by mixing the solutions at 60° C. for 1 h.
ILN18-MECA-1 was mixed in mineral base oil Group III+(ETRO 4+) and PETRONAS LB 25 polyol ester at 1 wt % concentration respectively to assess solubility and tribology evaluation. Samples were prepared by mixing the solutions at 60° C. for 1 h.

[3] = High Frequency Reciprocating Rig (HFRR) tribology test; settings: for Friction coefficient behaviour over contact time / friction reduction compared to the baseline fluid / wear scar diameter reduction compared to the baseline fluid: 1 wt % in PETRONAS LB 25 polyol ester; for Friction coefficient behaviour over contact time: vs baseline fluid
Experimental: (§1) High Frequency Reciprocating Rig (HFRR): tribology test rubbing of ball to disc metal specimens, under pure sliding contact (boundary lubrication regime), load at 400 g, frequency at 20 Hz, temperature at 120° C. for 60 mins. Only visually soluble solutions were evaluated, therefore, only Formulation 2 and Formulation 3 were tested. Reported values were the average of minimum 2 repeat runs.
as §1, with “was” for “and Formulation 3 were”, “replicate” for “repeat”
High Frequency Reciprocating Rig (HFRR): tribology test rubbing of ball to disc metal specimens, under pure sliding contact (boundary lubrication regime), load at 400 g, frequency at 20 Hz, temperature at 120° C. for 60 mins. Reported values were the average of minimum 2 replicate runs.

[4] = Thermo-gravimetric analysis under nitrogen (ashless nature); assay type: physicochemical
Description: The ashless nature of the formed ionic liquid was confirmed by thermo-gravimetric analysis under nitrogen (0.4788 wt. % residue).
The ashless nature of the formed ionic liquid was confirmed by thermo-gravimetric analysis under nitrogen (0.47271 wt. % residue).

[5] = 1 wt % in ETRO 4+ (89%) and LB 25 (10%), HFRR 400 g, 20 Hz, 120° C., 60 mins
[6] = HFRR 400 g, 20 Hz, 120° C., 60 mins

Appearance (miscibility) [1] | Molecule | Friction coefficient behaviour over contact time [3] | friction reduction compared to the baseline fluid [3, 6] [%] | wear scar diameter reduction compared to the baseline fluid [3, 6] [%] | residue in thermo-gravimetric analysis [4] [wt. %] | other results
Insoluble (2 separate phases) | CC(C)(COC(=O)CCCCCCCCC(=O)[O-])COC(=O)CCCCCCCCC(=O)[O-].CCCCCCCC[N+](C)(CCCCCCCC)CCCCCCCC.CCCCCCCC[N+](C)(CCCCCCCC)CCCCCCCC [ILN18-5B-DC10] | – | – | – | – | –
– | CC(C)(COC(=O)CCCCCCCCCCC(=O)O)COC(=O)CCCCCCCCCCC(=O)O [ILN18-5B-DC12] | significant friction reduction | 67 | 59 | 0.4788 | Experimental solubility ([2]; Formulation 1: 1 wt % in Group III Mineral Oil (ETRO 4+), mixed at 60° C. for 1 h): Insoluble; Experimental solubility ([2]; Formulation 2: 1 wt % in PETRONAS polyol ester LB 25, mixed at 60° C. for 1 h): Soluble, clear solution; Experimental solubility ([2]; Formulation 3: 1 wt % in ETRO 4+ (89%) and LB 25 (10%), mixed at 60° C. for 1 h): Soluble, clear solution; friction reduction compared to baseline [3, 5]: 55%; wear scar diameter reduction compared to baseline [3, 5]: 57%
Insoluble (2 separate phases) | CCCCCCCC[N+](C)(CCCCCCCC)CCCCCCCC.CCCCCCCC[N+](C)(CCCCCCCC)CCCCCCCC.O=C([O-])CCCCCCCCCCC(=O)[O-] [ILN18-DC12, reference compound] | – | – | – | – | –
Clear solution | CCCCCCCCC(=O)OC(CCCCCC)CCCCCCCCCCC(=O)[O-].CCCCCCCC[N+](C)(CCCCCCCC)CCCCCCCC (stereo not shown) [ILN18-MECA-4] | – | – | – | – | –
– | tris-(trioctyl methylammonium) trisebacate [ILN18-6BT-DC10] | significant friction reduction | 57 | 58 | 0.4727 | –
